Our source for the IC50 values is patent US10829478B2, “5-[3-[piperazin-1-yl]-3-oxo-propyl]-imidazolidine-2,4-dione derivatives as ADAMTS 4 and 5 inhibitors for treating e.g. osteoarthritis” (Galapagos NV, priority 2016, dated 2020).

The structures appear in SMILES notation.

Chain of human ADAMTS6 (Q9UKP5 other isoform, or with tags, fused parts or gaps): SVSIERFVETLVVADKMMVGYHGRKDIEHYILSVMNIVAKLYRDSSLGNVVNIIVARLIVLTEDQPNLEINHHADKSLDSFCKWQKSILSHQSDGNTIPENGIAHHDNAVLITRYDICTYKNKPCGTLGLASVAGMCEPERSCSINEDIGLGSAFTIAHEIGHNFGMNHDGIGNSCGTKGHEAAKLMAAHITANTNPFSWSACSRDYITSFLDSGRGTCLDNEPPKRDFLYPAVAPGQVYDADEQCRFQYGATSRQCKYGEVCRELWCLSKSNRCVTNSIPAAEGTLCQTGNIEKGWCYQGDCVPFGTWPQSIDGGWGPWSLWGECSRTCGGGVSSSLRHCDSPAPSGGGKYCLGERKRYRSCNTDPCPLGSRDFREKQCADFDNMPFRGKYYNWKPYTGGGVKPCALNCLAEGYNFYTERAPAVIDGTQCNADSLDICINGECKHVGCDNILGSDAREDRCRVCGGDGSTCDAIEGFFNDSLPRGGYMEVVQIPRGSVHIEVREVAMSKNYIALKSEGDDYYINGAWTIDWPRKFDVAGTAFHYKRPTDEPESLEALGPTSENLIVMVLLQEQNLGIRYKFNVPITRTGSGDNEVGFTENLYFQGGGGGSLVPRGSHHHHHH

This test addresses human ADAMTS6 (Homo sapiens (Human), UniProt Q9UKP5). The test can be described thus: hADAMTS-6 fluorescent based protease assay (520 MMP FRET substrate XII). The class given is biochemical. To be noted: 37° C. for 2 h; read-out: hADAMTS-6 potency IC50. As for the experimental part:
The IC50 value for test compounds can be determined in a fluorescent based protease assay.
The substrate contains sequence Arg-Pro-Lys-Pro-Tyr-Ala-Nva-Trp-Met-Lys (SEQ ID NO: 7) with attached a fluorescent probe and a quencher. Without ADAMTS6, the emission of the probe is quenched. If the substrate is cleaved by ADAMTS6, the emission of the probe is not quenched anymore. Inhibition of ADAMTS6 activity, will result in a decrease of the signal.
To perform the assay, 4 μL of a dilution series of compound in water, starting from 20 μM highest concentration, ⅕ dilution, is added to the wells. 2 ng ADAMTS6 enzyme is diluted in 25 mM Tris pH8.0, 0.05% CHAPS, 2.5 mM CaCl2 in a total volume of 26 μL (final concentration 0.73 nM). The reaction is started by addition of 10 μL of 1 μM 520 MMP FRET Substrate XII (final concentration, diluted in same buffer as described above) and the mixture is incubated at 37° C. for 2 h. […] After this incubation, cleavage of the substrate is measured using the Envision (Perkin Elmer, exc485/em530).
As to `COc1cc(N2CCN(C(=O)CC[C@@]3(C)NC(=O)NC3=O)CC2)c(C)cc1F` [Cpd 67, (5R)-5-[3-[4-(4-fluoro-5-methoxy-2-methyl-phenyl)piperazin-1-yl]-3-oxo-propyl]-5-methyl-imidazolidine-2,4-dione], the IC50 is 50 to 100 nM.

As for `COc1c(Cl)cccc1N1CCN(C(=O)CC[C@@]2(C)NC(=O)NC2=O)CC1` [Cpd 68, (5R)-5-[3-[4-(3-chloro-2-methoxy-phenyl)piperazin-1-yl]-3-oxo-propyl]-5-methyl-imidazolidine-2,4-dione], the IC50 was greater than 100 nM.

With `CCc1cc(CC)cc(N2CCN(C(=O)CC[C@@]3(C)NC(=O)NC3=O)CC2)c1` [Cpd 72, (5R)-5-[3-[4-(3,5-diethylphenyl)piperazin-1-yl]-3-oxo-propyl]-5-methyl-imidazolidine-2,4-dione], the IC50 was greater than 100 nM.

Regarding `COc1ccc(Cl)cc1N1CCN(C(=O)CC[C@@]2(C)NC(=O)NC2=O)CC1` [Cpd 77, (5R)-5-[3-[4-(5-chloro-2-methoxy-phenyl)piperazin-1-yl]-3-oxo-propyl]-5-methyl-imidazolidine-2,4-dione], the IC50 is greater than 100 nM.

`COc1cc(F)ccc1N1CCN(C(=O)CC[C@@]2(C)NC(=O)NC2=O)C[C@@H]1C` [Cpd 81, (5R)-5-[3-[(3 S)-4-(4-fluoro-2-methoxy-phenyl)-3-methyl-piperazin-1-yl]-3-oxo-propyl]-5-methyl-imidazolidine-2,4-dione]: the IC50 was greater than 100 nM.

Regarding `COc1c(F)cccc1N1CCN(C(=O)CC[C@@]2(C)NC(=O)NC2=O)CC1` [Cpd 82, (5R)-5-[3-[4-(3-fluoro-2-methoxy-phenyl)piperazin-1-yl]-3-oxo-propyl]-5-methyl-imidazolidine-2,4-dione], the IC50 is greater than 100 nM.

In the case of `COc1ccc(F)cc1N1CCN(C(=O)CC[C@@]2(C)NC(=O)NC2=O)CC1` [Cpd 83, (5R)-5-[3-[4-(5-fluoro-2-methoxy-phenyl)piperazin-1-yl]-3-oxo-propyl]-5-methyl-imidazolidine-2,4-dione], the IC50 is greater than 100 nM.

On to `COc1c(F)cccc1N1CCN(C(=O)CC[C@@]2(C)NC(=O)NC2=O)C[C@@H]1C` [Cpd 84, (5R)-5-[3-[(3 S)-4-(3-fluoro-2-methoxy-phenyl)-3-methyl-piperazin-1-yl]-3-oxo-propyl]-5-methyl-imidazolidine-2,4-dione], for which the IC50 is greater than 100 nM.

On to `CC(C)c1cc(N2CCN(C(=O)CC[C@@]3(C)NC(=O)NC3=O)CC2)ccc1Cl` [Cpd 87, (5R)-5-[3-[4-(4-chloro-3-isopropyl-phenyl)piperazin-1-yl]-3-oxo-propyl]-5-methyl-imidazolidine-2,4-dione], for which the half-maximal inhibitory concentration (IC50) lay in the range of 50 to 100 nM.

On to `C[C@]1(CCC(=O)N2CCN(c3ccc(Cl)c(OC(F)(F)F)c3)CC2)NC(=O)NC1=O` [Cpd 88, (5R)-5-[3-[4-[4-chloro-3-(trifluoromethoxy)phenyl]piperazin-1-yl]-3-oxo-propyl]-5-methyl-imidazolidine-2,4-dione], for which the half-inhibitory concentration (IC50) fell in the range of 25 to 50 nM.

As for `COc1cc(Cl)c(Cl)cc1N1CCN(C(=O)CC[C@@]2(C)NC(=O)NC2=O)C[C@@H]1C` [Cpd 92, (5R)-5-[3-[(3 S)-4-(4,5-dichloro-2-methoxy-phenyl)-3-methyl-piperazin-1-yl]-3-oxo-propyl]-5-methyl-imidazolidine-2,4-dione], the IC50 lay within 0.001 to 25 nM.

Turning to `COc1cc(N2CCN(C(=O)CC[C@@]3(C)NC(=O)NC3=O)CC2)c(OC)cc1Cl` [Cpd 97, (5R)-5-[3-[4-(4-chloro-2,5-dimethoxy-phenyl)piperazin-1-yl]-3-oxo-propyl]-5-methyl-imidazolidine-2,4-dione], the IC50 lay in the range of 25 to 50 nM.

As to `CCc1cc(N2CCN(C(=O)CCC3(CC(=O)O)NC(=O)NC3=O)C[C@@H]2C)ccc1Cl` (stereo partly shown) [Cpd 98, 2-[4-[3-[(3 S)-4-(4-chloro-3-ethyl-phenyl)-3-methyl-piperazin-1-yl]-3-oxo-propyl]-2,5-dioxo-imidazolidin-4-yl]acetic acid], the IC50 lay in the range of 0.001 to 25 nM.

As a reminder, the IC50 is the concentration at which inhibition is half-maximal.
